The values below come from PubChem BioAssay AID2305 (GlaxoSmithKline (GSK), 2010).

The assay deals with P. falciparum 3D7 growth, pLDH absorbance. Put plainly: P. falciparum 3D7 growth inhibition, dose response, strain 3D7 (AID 2305).

In the case of `O=C(NC1CCN(Cc2ccc(Cl)cc2)CC1)c1cn(-c2ccccc2)nc1-c1cccnc1`, the IC50 (usually the midpoint of a concentration-inhibition curve) is 970 nM. The result for `CCOc1ccc(-c2nonc2NC(=O)c2ccc(F)cc2)cc1OCC` reads 330 nM; that for `Cc1ccccc1CCNC(=O)c1ccc(N2CCN(c3ccncc3)CC2)nc1`, 1390 nM; that for `Cc1cc(N)cc2[nH]c(-c3ccc(N)cc3)nc12`, 890 nM. Next, `CS(=O)(=O)N1CC2(CCN(CCC(NC(=O)NCc3ccc(Cl)c(Cl)c3)c3ccc(Cl)c(Cl)c3)CC2)c2ccccc21` (configuration not stated): 800 nM; `COc1cc(NC(=O)/C=C/c2cc(F)cc(F)c2F)cc(OCCN2CCN(CCN3CCOCC3)CC2)c1`: 770 nM. In the case of `S=C(NN=Cc1ccccn1)NC1C[C@H]2C=C[C@@H]1C2` (some centres not stated), the IC50 amounted to 720 nM. This IC50 and that of the compound before are within 1.5-fold of each other. Consider `CCCCCCNC(=O)C1Cc2c([nH]c3ccc(C)cc23)C2(CCN(Cc3ccccc3)CC2)N1` (configuration not stated), for which the half-maximal inhibitory concentration (IC50) worked out at 980 nM. The IC50 values of the last two compounds are within 1.5-fold of each other. The result for `Cc1cc(-c2cccc3c(C(=O)N4CCc5cc6nccc(N7CCN8CCC[C@H]8C7)c6cc54)cccc23)cc(C)n1` reads 710 nM.

Compound `O=C(/C=C/C=C/c1ccccc1)NCCCCCN1CCC(c2c[nH]c3ccccc23)CC1` returned an IC50 of 1170 nM.

The compound `O=C(NC1CCN(c2ccc(F)cc2[N+](=O)[O-])CC1)c1cccs1` displayed an IC50 of 670 nM. The result for `CN(C)c1nc2cc(-n3cnc4cc(-c5ccc(Cl)cc5)sc4c3=O)ccc2n1CCCN1CCCC1` reads 850 nM. Compound `Fc1ccc2nc(Nc3nc(-c4ccccn4)cs3)sc2c1` displayed an IC50 of 560 nM. Next, `CC(C)Oc1ccc2ccccc2c1CNCCCCCCNCc1c(OC(C)C)ccc2ccccc12`: 610 nM; `Cc1ccc(NC(=O)c2ccc(C(=O)NC3CCN(CC4CCCCC4)CC3)cc2)cc1`: 900 nM; `Cc1cc(NN=CC=Cc2ccccc2)c2cc(F)ccc2n1`: 730 nM. Compound `O=c1cc(-c2ccc3ccccc3c2)[nH]c2ccccc12` came in with an IC50 of 1160 nM. This IC50 lies about 1.6-fold higher than the previous one. Next, `CN(C)CCOc1ccc(NC(=O)NC(C)(C)c2nc(-c3ccc(Cl)c(O)c3)c(-c3ccncc3)[nH]2)cc1`: 110 nM. Next, `Cc1ccc(Cn2cnc(N3CC(C)NC(C)C3)cc2=O)cc1NC(=O)Nc1ccc(-c2ccccc2)cc1` (configuration not stated): 850 nM. Next, `NC(=O)c1sc(-n2cnc3ccccc32)cc1OCc1ccccc1[N+](=O)[O-]`: 700 nM. `COc1ccc(-c2cc(NCc3ccc(-n4ccnc4)cc3)nc(Nc3ccccc3)n2)cc1` showed an IC50 of 970 nM. The result for `CCc1ccc(NC(=O)c2cccc(CN3CCCN(Cc4cccc(O)c4)CC3)c2)cc1` reads 890 nM.

With `Cc1cccc2[nH]c(-c3cccc(-c4ccc(NC(=O)C(C)(C)c5ccccn5)cc4)c3)nc12`, the IC50 was 690 nM. The result for `COCc1cccc(-c2cc(-c3ccc(S(C)(=O)=O)cc3)cnc2N)c1` reads 1000 nM; that for `c1ccc(-c2nc(NCCCn3ccnc3)cc(-c3ccncc3)n2)cc1`, 170 nM; that for `COc1cc2nccc(Nc3ccc(OCc4ccc(NC(C)=O)cc4)cc3)c2cc1OC`, 550 nM.

Take `Cc1cc(-c2ccc(CNCc3ccc(F)cc3)cc2)ccc1S(=O)(=O)NCCN1CCCC1`: the IC50 is 720 nM. Next, `O=C(Nc1cccc(CN2CCCN(Cc3ccc4c(c3)OCO4)CC2)c1)c1ccc2ccccc2c1`: 1050 nM. `Cn1nc(-c2ccc(NC(=O)Nc3cc(C(F)(F)F)ccc3F)cc2)c2cnc(NCCCCN3CCCC3)nc21` returned an IC50 of 530 nM. Compared with the last compound, the IC50 is about 2-fold lower. The result for `Cc1ccccc1N1CCN(c2ncc(C(=O)NC3CC3)cc2Cl)CC1` reads 630 nM; that for `NCCCNc1ccnc2cc(Cl)ccc12`, 300 nM; that for `COc1nc2c(CCN3CC[C@H](NCc4cc(C#N)c5c(c4)CCO5)[C@H](O)C3)ccnc2cc1F`, 350 nM. The result for `CCCNC[C@@H](O)[C@H](Cc1ccccc1)NC(=O)c1cc(NCC)cc(N2CCCC2=O)c1` reads 760 nM; that for `C=CC[C@H](C[C@H](O)[C@H](Cc1ccccc1)NC(=O)c1nn(-c2ccccc2)nc1C)C(=O)NC1CCCCC1`, 920 nM; that for `CC(=O)N(Cc1ccccc1-c1cccc(CNCCc2ccccc2)c1)C1CCN(Cc2ccccc2)CC1`, 1100 nM. `Cc1cc(C)c(C)c(S(=O)(=O)N2CCCCC(c3ccc(F)c(F)c3)=N2)c1C`: the IC50 worked out at 710 nM.

Regarding `COc1cc(NC(=O)c2sc(-c3ccc(Cl)cc3)cc2NC(=O)c2cccnc2)ccc1OCCN1CCCC1`, the IC50 worked out at 380 nM.

`Fc1ccc2nc(-c3ccc(-c4ccc(CNCCc5cccnc5)cc4)s3)[nH]c2c1` gave an IC50 of 240 nM.

For `COc1ccccc1CCCN1C(=O)C(c2ccccc2)(c2ccccc2)N=C1N`, the IC50 worked out at 270 nM. The result for `Oc1cc2c(cc1CN1CCN(Cc3ccc(Cl)s3)CC1)CCC2` reads 620 nM.

The compound `COc1ccc(OCCCN2CCN(CC(c3ccc(F)cc3)N3CCN(C(C)C)CC3)CC2)c2ccccc12` (configuration not stated) showed an IC50 of 650 nM. On to `COc1ccnc(NCCCNCc2cn(S(=O)(=O)c3ccccc3)c3ccccc23)c1`, for which the half-inhibitory concentration (IC50) came to 790 nM. The IC50 values of the last two compounds are within 1.5-fold of each other. The result for `CCOc1cc(C)ccc1NC1CCN(CCCCNC(=O)c2ccc(NC(=O)c3ccc(Cl)cc3)cc2)CC1` reads 710 nM. `Cc1cc(F)ccc1Oc1nc(Nc2ccc(N3CCOCC3)c(F)c2)nc2c1S(=O)(=O)CCC2`: the half-maximal inhibitory concentration (IC50) amounted to 460 nM. As to `FC(F)(F)c1ccc2nc(-c3ccc(-c4cccc(CN5CCN(CCN6CCOCC6)CC5)c4)cc3)[nH]c2c1`, the IC50 came out at 160 nM. The result for `C[C@@H]1CC[C@H](NC(=O)[C@H](CC2CCCC2)NC(=O)N2CCNCC2)C(=O)CN1S(=O)(=O)c1ccccn1` reads 890 nM.

Regarding `CC(C)c1cc(Oc2c(I)cc(CCN=C(N)N)cc2I)ccc1O`, the IC50 was found to be 790 nM. Next, `CC(C)c1ccc2c(c1)c(SC(C)(C)C)c(CC(C)(C)C#N)n2Cc1ccc(Cl)cc1`: 220 nM; `Fc1ccc2nc(-c3ccc(-c4cccc(CN5CCN(c6ccncc6)CC5)c4)cc3)[nH]c2c1`: 90 nM. Next, `CC(C)C(=O)NC(c1ccc(Cl)cc1)c1ccc2cccnc2c1O` (configuration not stated): 870 nM.

On to `COc1ccc(CC2(c3ccc(F)cc3)N=C(N)N(CCCc3ccc(F)c(F)c3)C2=O)cc1` (configuration not stated), for which the IC50 worked out at 780 nM. Compound `O=C(Nc1ccccc1)N(Cc1ccc(-c2cccc(CNCc3ccc4c(c3)OCO4)c2)cc1)C1CCN(Cc2ccccc2)CC1` displayed an IC50 of 280 nM.

With `CCCCCC(=O)N1CCOC(CCN2CCc3c(c4ccccc4n3C)C2)(c2ccc(Cl)c(Cl)c2)C1` (configuration not stated), the IC50 came to 980 nM. Against the preceding compound, the IC50 is about 3.5-fold higher. Next, `Cc1cc(N2CC=CCC2)nc(/N=C(\N)Nc2ccc(Cl)cc2)n1`: 780 nM. Next, `O=C(N[C@H]1CCN(Cc2ccc(OC3CCN(Cc4ccccc4)CC3)c(Cl)c2)C1)c1ccc(Cl)c(Cl)c1`: 810 nM.

The compound `CCOC(=O)CCCN1C(=O)CN=C(c2ccccc2)c2cc(Cl)ccc21` registered an IC50 of 780 nM. This IC50 and that of the compound before are within 1.5-fold of each other. The result for `CCN(CC)CCCC(C)N=C(Nc1ccc(C#N)cc1O)Nc1ccccc1Br` (configuration not stated) reads 1040 nM. For the compound `Cc1ccc(CN=C(N)NC(=O)c2nc(Cl)c(NCc3ccc(Cl)cc3)nc2N)c(C)c1`, the half-inhibitory concentration (IC50) was 170 nM. This IC50 lies about 6.1-fold lower than the previous one.

As for `COc1cc(-c2cnc(N)c(-c3nc4ccccc4[nH]3)c2)cc(OC)c1OC`, the IC50 came to 190 nM. Regarding `CC(C)(C)c1ccccc1OC(=O)c1ccccc1`, the IC50 stood at 740 nM. `COc1ccc(NC(=O)[C@H](Cc2ccccc2)Nc2cc(C)nc(NCCc3ccccc3)n2)cc1`: the IC50 turned out to be 1240 nM. The result for `CC(C)C1=NCc2ccc([N+](=O)[O-])cc2C(=O)N1` reads 150 nM.
